For test [1], the system named is BALB/c mice after 7 Gy TBI. Put plainly: In vivo radiation mitigation: survival after 7 Gy TBI. Details: species or system mouse. As to conditions: 7 Gy TBI (LD95/30), treatment initiated 24 hours after irradiation; Mantel-Cox log-rank. On the procedure: (§1) Male BALB/c mice (Stock #028, Charles River, Wilmington, Mass.) were acclimated prior to irradiation at age 12 weeks. Studies were conducted in accordance with Dana-Farber Cancer Institute's ACUC-approved policies and protocols. Mice were placed into a Rad Disk™ rodent microisolation irradiation cage (Braintree Scientific, Braintree, Mass.) and administered a single 7 Gy dose by a Gammacell® 40Exactor (Best Theratronics, Ottawa, Ontario) cesium source irradiator. […]
For the human HSCT study, samples with undetectable analytes were assigned a value at half the lower limit of detection. For ANC, PLT, BPI, TLR4 and IL-6, data were analyzed after logarithmic transformation, as this yielded distributions that were more approximately normal. […] Comparisons between subjects with or without fever were evaluated using the Mann-Whitney test. When assessing correlations between different parameters, within-subject correlations were calculated using the Spearman correlation coefficient and data from multiple time-points. The calculated coefficients were averaged over the different subjects and significance tested with the signed rank test. […] Two tailed t tests (Mann-Whitney) are performed throughout except for citrulline data in which the data were analyzed by 1-sample t test as compared to theoretical mean of 100% and for hematologic analyses (Table 1) in which unpaired t tests were performed. […]

Test [2] relates to BALB/c mice after 7 Gy TBI. Put plainly: Peripheral blood counts after TBI (CBC, Hemavet). It counts as in vivo, mouse. Conditions: median; for WBC: treatment started 24 h after irradiation. How it is done: Male BALB/c mice (Stock #028, Charles River, Wilmington, Mass.) were acclimated prior to irradiation at age 12 weeks. Studies were conducted in accordance with Dana-Farber Cancer Institute's ACUC-approved policies and protocols. Mice were placed into a Rad Disk™ rodent microisolation irradiation cage (Braintree Scientific, Braintree, Mass.) and administered a single 7 Gy dose by a Gammacell® 40Exactor (Best Theratronics, Ottawa, Ontario) cesium source irradiator. […] Moribund mice were euthanized via CO, asphyxiation. At scheduled time points, mice were sacrificed humanely via isoflurane anesthetic overdose (IsoFlo®-Abbott Labs, Abbott Park, Ill.).
CBCs were performed on a Hemavet 950 FS hematology analyzer (Drew Scientific, Waterbury, Conn.) with EDTA-anticoagulated (Becton-Dickinson, Franklin Lakes, N.J.) cardiac blood. Plasma was obtained by mixing blood with pyrogen-free heparin (APP Pharmaceutical, Schaumburg, Ill.), in pyrogen-free Eppendorf tubes (USA Scientific) and centrifugation at 14,000 rpm for 10 minutes. Single use aliquots were stored at −80° C. In some studies, femurs and tibiae from one leg/animal were dissected, fixed for 24 hours in 10% neutral buffered formalin (Fisher Scientific, Pittsburgh, Pa.), and processed, including coronal sectioning and hematoxylin and eosin (H&E) staining (Specialized Histopathology Services-Longwood, Boston, Mass.). […] Red blood cells were lysed with hypotonic lysing buffer (Sigma).

The subject of test [3] is BM of BALB/c mice after 7 Gy TBI. Put plainly: Femoral BM cellularity by histopathology. It counts as in vivo, mouse. Conditions: D19 after 7 Gy. On the procedure: as §1
A Board-certified hematopathologist (JK) assessed femoral BM cellularity on decalcified, formalin fixed, H&E stained paraffin-fixed sections using an Olympus BX51 microscope and an Olympus DP71 camera with DP Capture software. For each animal, 2 slides with 2 fields/slide were scored for the percent of BM space occupied by hematopoietic cells. […]

The structures appear in SMILES notation. Marks after values point to notes of the source that are not given here.

These results are taken from patent US9884089B2, “BPI and its congeners as radiation mitigators and radiation protectors” (Dana-Farber Cancer Institute, Inc., priority 2011, dated 2018).

As to `CCN1CCN(c2cc3c(cc2F)c(=O)c(C(=O)O)cn3C2CC2)CC1` [ENR, enrofloxacin], the D30 survival entry in test [1] was “some survival benefit”. For the same compound, in test [2] (D15 after 7 Gy TBI), the WBC was 0.24 ▴ K/μL, the Hb is 8.80 ▴ ▪ g/dL, the Monocytes is recorded as 0 ▴ ● K/μL and the Neutrophils is reported as 0 ▴ ● K/μL. For the same compound, the PLT in test [2] (D15 after 7 Gy TBI) is 196 ▴ K/μL. In test [2] (D19 after 7 Gy TBI), the WBC is 0.21 ▴ K/μL, the Hb is 8.35 ▴ ▪ g/dL, the Monocytes was 0 ▴ ● ▪ K/μL and the Neutrophils is 0 ▴ ● ▪ K/μL. Besides, the PLT in test [2] (D19 after 7 Gy TBI) is 250.5 ▴ K/μL. Moreover, in test [2] (D30 after 7 Gy TBI), the WBC is listed as 1.84 ▴ ● K/μL, the Hb is 13.1 ▴ g/dL, the Monocytes is reported as 0.14 ● K/μL and the Neutrophils was 0.55 ● K/μL. In test [2] (D30 after 7 Gy TBI), the PLT is reported as 713.5 ▴ K/μL. For the same compound, the BM cellularity in test [3] was < 5%.
